Laboratory results from patent publication US9751885B2, “Cyclopropanamine compound and use thereof” (Takeda Pharmaceutical Company Limited, priority 2012, dated 2017).
Structures can show the parent of a compound that is named as a salt.

How the values were obtained:
human LSD1(172-833) = human LSD1(172-833) (Homo sapiens (Human), UniProt O60341); experiment: Measurement of LSD1 inhibitory activity (time-resolved fluorescence, biotin-histone H3 mono methylated K4 peptide); format: biochemical
Description: When the turbidity reached 500 Klett units, the culture temperature was changed to 16° C., IPTG (Isopropyl β-D-1-thiogalactopyranoside) having a final concentration of 0.5 mM was added to induce expression, and the cells were cultured further for 14 hr. The culture medium was centrifuged at 6,000 g for 15 min, and Escherichia coil pellets were recovered.
Using Branson ultrasonic disintegrator, the suspension was disrupted by ultrasonication for 3 min, and centrifuged at 33,000 g for 60 min, and the supernatant was recovered. […] It was concentrated to 10 mL with AmiconUltra (NWCO 30K) (Millipore Japan), and purified with HiLoad 26/60 Superdex 200 pg column (GE Healthcare) equilibrated with Buffer A to give hLSD1 purified product (8.4 mg). The protein concentration of hLSD1 was measured by BCA Protein Assay Kit (Thermo Fisher Scientific K.K.) using bovine serum albumin as the standard.
(5) Measurement of LSD1 Inhibitory Activity
After reaction at room temperature for 5 min, 1 mM 2-PCPA solution was added 5 μL to terminate the reaction. A detection solution ([…] potassium fluoride, 0.1% BSA) containing europium-labeled anti-histone H3 antibody (Wako Pure Chemical Industries, Ltd.) and Streptavidin-XL665 (Cisbio) was further added by 5 μL, and the mixture was left standing for 60 min.

MAO-A enzyme = MAO-A enzyme (Homo sapiens (Human), UniProt P21397); experiment: Measurement of MAO-A inhibitory activity (MAO-Glo Assay); format: biochemical
MAO-A enzyme, sequence (P21397 whole entry): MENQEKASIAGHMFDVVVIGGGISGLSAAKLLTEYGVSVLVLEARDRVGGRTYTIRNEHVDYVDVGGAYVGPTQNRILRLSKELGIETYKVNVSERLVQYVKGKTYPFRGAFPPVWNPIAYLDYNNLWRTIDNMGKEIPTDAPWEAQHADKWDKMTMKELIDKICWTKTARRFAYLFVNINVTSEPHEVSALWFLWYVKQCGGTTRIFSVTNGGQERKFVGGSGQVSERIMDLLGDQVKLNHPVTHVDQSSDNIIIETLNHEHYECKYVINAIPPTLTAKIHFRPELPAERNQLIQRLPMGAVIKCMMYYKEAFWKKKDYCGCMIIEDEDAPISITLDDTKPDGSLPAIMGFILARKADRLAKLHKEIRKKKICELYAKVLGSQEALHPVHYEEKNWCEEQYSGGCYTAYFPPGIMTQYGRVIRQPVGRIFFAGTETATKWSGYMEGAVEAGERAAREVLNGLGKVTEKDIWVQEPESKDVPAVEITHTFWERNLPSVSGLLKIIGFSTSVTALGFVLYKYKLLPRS
Description: The MAO-A inhibitory activity evaluation described below followed the protocol of MAO-Glo (registered trademark) Assay of Promega KK.
A test compound dissolved in 4% DMSO was added by 12.5 μL to 25 μL reaction solution (100 mM HEPES (pH 7.5), 5% glycerol) containing 400 ng of MAO-A enzyme (Sigma-Aldrich Co. LLC.), and the mixture was reacted at room temperature for 10 min. […] After reaction at room temperature for 60 min, Luciferine detection reagent (Promega KK) (50 μL) was added to terminate the reaction. After reaction at room temperature for min with stirring, the luminescence was measured by Envision (PerkinElmer). The MAO-A inhibitory rate (%) of the test compound was calculated by the following formula. inhibitory rate(%)=(1−(test compound count−blank)÷(control−blank))×100
The count of the MAO-A enzyme reaction mixture under compound non-addition conditions is indicated as control, and the count under compound non-addition and MAO-A enzyme non-addition conditions is indicated as blank.

MAO-B enzyme = MAO-B enzyme (Homo sapiens (Human), UniProt P27338); experiment: Measurement of MAO-B inhibitory activity (MAO-Glo Assay); conditions: read-out: MAO-B IC50 value;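 note: luminescence read-out, compound preincubated 10 min with enzyme then reacted 60 min at room temperature, inhibition relative to enzyme reaction without compound, blank lacking enzyme and compound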
MAO-B enzyme, sequence (P27338 whole entry): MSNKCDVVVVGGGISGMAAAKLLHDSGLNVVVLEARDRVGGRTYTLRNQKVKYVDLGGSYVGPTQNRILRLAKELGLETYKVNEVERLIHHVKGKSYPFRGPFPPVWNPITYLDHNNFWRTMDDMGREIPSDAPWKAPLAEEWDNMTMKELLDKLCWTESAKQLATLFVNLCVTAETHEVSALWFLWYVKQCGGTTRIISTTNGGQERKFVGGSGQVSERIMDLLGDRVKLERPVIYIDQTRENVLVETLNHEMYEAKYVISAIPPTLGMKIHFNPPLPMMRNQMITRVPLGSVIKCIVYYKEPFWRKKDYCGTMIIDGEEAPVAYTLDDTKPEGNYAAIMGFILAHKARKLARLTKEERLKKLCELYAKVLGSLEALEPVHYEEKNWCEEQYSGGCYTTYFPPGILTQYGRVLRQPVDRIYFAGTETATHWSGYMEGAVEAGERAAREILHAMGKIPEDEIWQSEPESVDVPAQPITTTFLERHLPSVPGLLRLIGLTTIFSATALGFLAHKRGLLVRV

Structure (SMILES) | IC50 (human LSD1(172-833)) [nM] | IC50 (MAO-A enzyme) [µM] | IC50 (MAO-B enzyme) [µM]
O=C(NCc1ccc(N2CCCC2=O)cc1)c1ccc([C@@H]2C[C@H]2NCC2CC2)cc1 (relative stereo) [Example 27, 4-(trans-2-((cyclopropylmethyl)amino)cyclopropyl)-N-(4-(2-oxopyrrolidin-1-yl)benzyl)benzamide trifluoroacetate] | < 100 | > 10 | > 10
O=C(NCc1ccc(N2CCOCC2)cc1)c1ccc([C@@H]2C[C@H]2NCC2CC2)cc1 (relative stereo) [Example 28, 4-(trans-2-((cyclopropylmethyl)amino)cyclopropyl)-N-(4-(morpholin-4-yl)benzyl)benzamide bis(trifluoroacetate)] | < 100 | > 10 | > 10
O=C(NCc1cccc(Oc2cnccn2)c1)c1ccc([C@@H]2C[C@H]2NCC2CC2)cc1 (relative stereo) [Example 29, 4-(trans-2-((cyclopropylmethyl)amino)cyclopropyl)-N-(3-(pyrazin-2-yloxy)benzyl)benzamide bis(trifluoroacetate)] | < 100 | 7.3 | > 10
O=C(NCc1cccc2c1OCCO2)c1ccc([C@@H]2C[C@H]2NCC2CC2)cc1 (relative stereo) [Example 30, 4-(trans-2-((cyclopropylmethyl)amino)cyclopropyl)-N-(2,3-dihydro-1,4-benzodioxin-5-ylmethyl)benzamide trifluoroacetate] | < 100 | > 10 | > 10
CC(C)(C)c1ccc(CN[C@@H]2C[C@H]2c2ccc(C(=O)NCc3ccccc3)cc2)cc1 (relative stereo) [Example 31, N-benzyl-4-(trans-2-((4-tert-butylbenzyl)amino)cyclopropyl)benzamide trifluoroacetate] | < 100 | 4 | > 10
COc1ccccc1CN[C@@H]1C[C@H]1c1ccc(C(=O)NCc2ccccc2)cc1 (relative stereo) [Example 32, N-benzyl-4-(trans-2-((2-methoxybenzyl)amino)cyclopropyl)benzamide trifluoroacetate] | < 100 | > 10 | > 10
Cc1ccccc1CN[C@@H]1C[C@H]1c1ccc(C(=O)NCc2ccccc2)cc1 (relative stereo) [Example 33, N-benzyl-4-(trans-2-((2-methylbenzyl)amino)cyclopropyl)benzamide trifluoroacetate] | < 100 | > 10 | > 10
Cc1ccc(CN[C@@H]2C[C@H]2c2ccc(C(=O)NCc3ccccc3)cc2)cc1 (relative stereo) [Example 34, N-benzyl-4-(trans-2-((4-methylbenzyl)amino)cyclopropyl)benzamide trifluoroacetate] | < 100 | 4.4 | > 10
COc1ccc(CN[C@@H]2C[C@H]2c2ccc(C(=O)NCc3ccccc3)cc2)cc1 (relative stereo) [Example 35, N-benzyl-4-(trans-2-((4-methoxybenzyl)amino)cyclopropyl)benzamide trifluoroacetate] | < 100 | 3.1 | > 10
N#Cc1ccc(CN[C@@H]2C[C@H]2c2ccc(C(=O)NCc3ccccc3)cc2)cc1 (relative stereo) [Example 36, N-benzyl-4-(trans-2-((4-cyanobenzyl)amino)cyclopropyl)benzamide trifluoroacetate] | < 100 | 4.3 | > 10
COc1cccc(CN[C@@H]2C[C@H]2c2ccc(C(=O)NCc3ccccc3)cc2)c1 (relative stereo) [Example 37, N-benzyl-4-(trans-2-((3-methoxybenzyl)amino)cyclopropyl)benzamide trifluoroacetate] | < 100 | 4.5 | > 10
O=C(NCc1ccccc1)c1ccc([C@@H]2C[C@H]2NCc2ccc(C(F)(F)F)cc2)cc1 (relative stereo) [Example 38, N-benzyl-4-(trans-2-((4-(trifluoromethyl)benzyl)amino)cyclopropyl)benzamide trifluoroacetate] | < 100 | 2.2 | > 10
O=C(NCc1ccccc1)c1ccc([C@@H]2C[C@H]2NCc2ccccc2F)cc1 (relative stereo) [Example 39, N-benzyl-4-(trans-2-((2-fluorobenzyl)amino)cyclopropyl)benzamide trifluoroacetate] | < 100 | 6.6 | > 10
COc1ccc(F)c(CN[C@@H]2C[C@H]2c2ccc(C(=O)NCc3ccccc3)cc2)c1 (relative stereo) [Example 40, N-benzyl-4-(trans-2-((2-fluoro-5-methoxybenzyl)amino)cyclopropyl)benzamide trifluoroacetate] | < 100 | > 10 | > 10
COc1cc(Cl)ccc1CN[C@@H]1C[C@H]1c1ccc(C(=O)NCc2ccccc2)cc1 (relative stereo) [Example 41, N-benzyl-4-(trans-2-((4-chloro-2-methoxybenzyl)amino)cyclopropyl)benzamide trifluoroacetate] | < 100 | 6.6 | > 10
CN(C)c1ccccc1CN[C@@H]1C[C@H]1c1ccc(C(=O)NCc2ccccc2)cc1 (relative stereo) [Example 42, N-benzyl-4-(trans-2-((2-(dimethylamino)benzyl)amino)cyclopropyl)benzamide bis(trifluoroacetate)] | < 100 | 3.4 | > 10
N#Cc1cccc(CN[C@@H]2C[C@H]2c2ccc(C(=O)NCc3ccccc3)cc2)c1 (relative stereo) [Example 43, N-benzyl-4-(trans-2-((3-cyanobenzyl)amino)cyclopropyl)benzamide trifluoroacetate] | < 100 | 1.5 | > 10
O=C1COc2ccc(CN[C@@H]3C[C@H]3c3ccc(C(=O)NCc4ccccc4)cc3)cc2N1 (relative stereo) [Example 44, N-benzyl-4-(trans-2-(((3-oxo-3,4-dihydro-2H-1,4-benzoxazin-6-yl)methyl)amino)cyclopropyl)benzamide trifluoroacetate] | < 100 | 1.3 | > 10
O=C(NCc1ccccc1)c1ccc([C@@H]2C[C@H]2NCc2ccc(-c3cnccn3)cc2)cc1 (relative stereo) [Example 45, N-benzyl-4-(trans-2-((4-(pyrazin-2-yl)benzyl)amino)cyclopropyl)benzamide bis(trifluoroacetate)] | < 100 | 1.7 | > 10
O=C(NCc1ccccc1)c1ccc([C@@H]2C[C@H]2NCc2cccs2)cc1 (relative stereo) [Example 46, N-benzyl-4-(trans-2-((2-thienylmethyl)amino)cyclopropyl)benzamide trifluoroacetate] | < 100 | 1.8 | > 10
Cc1ccsc1CN[C@@H]1C[C@H]1c1ccc(C(=O)NCc2ccccc2)cc1 (relative stereo) [Example 47, N-benzyl-4-(trans-2-(((3-methyl-2-thienyl)methyl)amino)cyclopropyl)benzamide trifluoroacetate] | < 100 | 5 | > 10
Cc1ccc(CN[C@@H]2C[C@H]2c2ccc(C(=O)NCc3ccccc3)cc2)s1 (relative stereo) [Example 48, N-benzyl-4-(trans-2-(((5-methyl-2-thienyl)methyl)amino)cyclopropyl)benzamide trifluoroacetate] | < 100 | 2.6 | > 10
Cc1csc(CN[C@@H]2C[C@H]2c2ccc(C(=O)NCc3ccccc3)cc2)c1 (relative stereo) [Example 49, N-benzyl-4-(trans-2-(((4-methyl-2-thienyl)methyl)amino)cyclopropyl)benzamide trifluoroacetate] | < 100 | 1.8 | > 10
N[C@@H]1C[C@H]1c1ccc(C(=O)Nc2ccc(-c3ncccn3)cc2)cc1 (relative stereo) [Example 50, 4-(trans-2-aminocyclopropyl)-N-(4-(pyrimidin-2-yl)phenyl)benzamide dihydrochloride] | < 100 | 0.2 | > 10
Cn1cc(NC(=O)c2ccc([C@@H]3C[C@H]3N)cc2)cn1 (relative stereo) [Example 51, 4-(trans-2-aminocyclopropyl)-N-(1-methyl-1H-pyrazol-4-yl)benzamide dihydrochloride] | < 100 | 0.83 | > 10
O=C(Nc1ccc(-c2ncccn2)cc1)c1ccc([C@@H]2C[C@H]2NCC2CC2)cc1 (relative stereo) [Example 52, 4-(trans-2-((cyclopropylmethyl)amino)cyclopropyl)-N-(4-(pyrimidin-2-yl)phenyl)benzamide dihydrochloride] | < 100 | > 10 | > 10
